US20110166191A1, “3-(2-amino-ethyl)-5-(3-cyclohexyl-propylidene)-thiazolidine-2,4-dione and its derivatives as multiple signaling pathway inhibitors and for the treatment of cancer” (priority 2010, published 2011)
pIC50: −log10 of the molar value.

Columns and labels:
M12 = experiment: Cell viability assay; format: cell-based; details: M12 cells, 24 hrs, read-out: Inhibition of cancer cell proliferation IC50
Procedure: (§1) Cells were cultured at a density of 5×10^4 (U937) or 1×10^4 (PC-3, DU145, M12, HT29) cells per well in flat bottomed 96-well plates and treated with various concentrations of test compound at 37° C. (5% CO2). After 24 h, 20 μL of CellTiter 96® Aqueous One Solution Reagent (Promega, Madison, Wis.) was added to each well according to the manufacturer's instructions. After 1 hour, the cell viability was determined by measuring the absorbance at 490 nm using a micro-plate reader.

HT29 = experiment: Cell viability assay; format: cell-based; details: Homo sapiens, HT-29, HT29 cells, 24 hrs, read-out: Inhibition of cancer cell proliferation IC50
Procedure: as §1

U937 = experiment: Cell viability assay; format: cell-based; details: Homo sapiens, U-937, U937 cells, 24 hrs, read-out: Inhibition of cancer cell proliferation IC50
Procedure: as §1

DU145 = experiment: Cell viability assay; format: cell-based; details: Homo sapiens, DU-145, DU145 cells, 24 hrs, read-out: Inhibition of cancer cell proliferation IC50
Procedure: as §1

PC-3 = experiment: Cell viability assay; format: cell-based; details: Homo sapiens, PC-3 cells, 24 hrs, read-out: Inhibition of cancer cell proliferation IC50
Procedure: as §1

INSR = target: T1, INSR (Homo sapiens, UniProt P06213); experiment: In vitro kinase screening; format: biochemical; details: 10 μM concentration
T1 construct: Caliper Life Sciences (screening service)
Procedure: (§2) Formula II [3-(2-aminoethyl)-5-(3-cyclohexylpropylidene)thiazolidine-2,4-dione] was screened against a panel of kinases at 10 μM concentration by Caliper Life Sciences according to their established protocol.

MEK1 = target: T2, MEK1 (Homo sapiens, UniProt Q02750); experiment: In vitro kinase screening; format: biochemical; details: MEK1, 10 μM concentration
T2 construct: Caliper Life Sciences
T2 sequence (Q02750 whole entry, species assumed): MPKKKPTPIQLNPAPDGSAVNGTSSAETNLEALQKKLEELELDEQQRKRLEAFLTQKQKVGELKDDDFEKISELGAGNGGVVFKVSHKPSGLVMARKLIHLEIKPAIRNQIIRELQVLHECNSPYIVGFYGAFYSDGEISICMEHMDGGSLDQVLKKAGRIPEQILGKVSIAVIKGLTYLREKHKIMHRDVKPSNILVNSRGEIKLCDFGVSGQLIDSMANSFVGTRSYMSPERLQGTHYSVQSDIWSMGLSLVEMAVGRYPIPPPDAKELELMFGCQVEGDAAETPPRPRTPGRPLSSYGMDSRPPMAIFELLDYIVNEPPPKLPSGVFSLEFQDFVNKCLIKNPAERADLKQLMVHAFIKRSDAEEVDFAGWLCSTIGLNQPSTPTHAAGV
Procedure: as §2

AKT2 = target: T3, AKT2 (Homo sapiens, UniProt P31751); experiment: In vitro kinase screening; format: biochemical; details: AKT2, 10 μM concentration
T3 construct: Caliper Life Sciences (screening service)
Procedure: as §2

CHK2 = target: T4, CHK2 (Homo sapiens, UniProt O96017); experiment: In vitro kinase screening; format: biochemical; details: CHK2, 10 μM concentration
T4 construct: Caliper Life Sciences (screening service)
T4 sequence (O96017 whole entry): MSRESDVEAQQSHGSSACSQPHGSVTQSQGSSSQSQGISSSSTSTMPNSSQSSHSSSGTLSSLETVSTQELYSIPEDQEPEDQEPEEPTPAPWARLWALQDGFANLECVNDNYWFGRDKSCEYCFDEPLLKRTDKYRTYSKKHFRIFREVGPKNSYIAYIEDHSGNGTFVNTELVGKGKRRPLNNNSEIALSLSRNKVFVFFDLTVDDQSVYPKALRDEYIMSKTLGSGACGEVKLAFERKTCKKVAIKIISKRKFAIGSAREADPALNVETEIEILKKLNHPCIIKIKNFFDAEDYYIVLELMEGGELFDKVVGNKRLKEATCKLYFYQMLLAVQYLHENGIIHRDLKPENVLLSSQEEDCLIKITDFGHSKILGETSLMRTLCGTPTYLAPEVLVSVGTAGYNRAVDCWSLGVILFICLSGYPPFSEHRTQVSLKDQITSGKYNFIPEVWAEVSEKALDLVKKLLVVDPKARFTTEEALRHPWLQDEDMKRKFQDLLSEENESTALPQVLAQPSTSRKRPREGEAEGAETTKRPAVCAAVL
Procedure: as §2

c-TAK1 = target: T5, c-TAK1 (Homo sapiens, UniProt P27448); experiment: In vitro kinase screening; format: biochemical; details: c-TAK1, 10 μM concentration
T5 construct: Caliper Life Sciences (screening service)
Procedure: as §2

ROCK2 = target: T6, ROCK2 (Homo sapiens, UniProt O75116); experiment: In vitro kinase screening; format: biochemical; details: ROCK2, 10 μM concentration
T6 construct: Caliper Life Sciences
Procedure: as §2

MARK1 = target: T7, MARK1 (Homo sapiens, UniProt Q9P0L2); experiment: In vitro kinase screening; format: biochemical; details: MARK1, 10 μM concentration
T7 construct: Caliper Life Sciences
T7 sequence (Q9P0L2 whole entry, species assumed): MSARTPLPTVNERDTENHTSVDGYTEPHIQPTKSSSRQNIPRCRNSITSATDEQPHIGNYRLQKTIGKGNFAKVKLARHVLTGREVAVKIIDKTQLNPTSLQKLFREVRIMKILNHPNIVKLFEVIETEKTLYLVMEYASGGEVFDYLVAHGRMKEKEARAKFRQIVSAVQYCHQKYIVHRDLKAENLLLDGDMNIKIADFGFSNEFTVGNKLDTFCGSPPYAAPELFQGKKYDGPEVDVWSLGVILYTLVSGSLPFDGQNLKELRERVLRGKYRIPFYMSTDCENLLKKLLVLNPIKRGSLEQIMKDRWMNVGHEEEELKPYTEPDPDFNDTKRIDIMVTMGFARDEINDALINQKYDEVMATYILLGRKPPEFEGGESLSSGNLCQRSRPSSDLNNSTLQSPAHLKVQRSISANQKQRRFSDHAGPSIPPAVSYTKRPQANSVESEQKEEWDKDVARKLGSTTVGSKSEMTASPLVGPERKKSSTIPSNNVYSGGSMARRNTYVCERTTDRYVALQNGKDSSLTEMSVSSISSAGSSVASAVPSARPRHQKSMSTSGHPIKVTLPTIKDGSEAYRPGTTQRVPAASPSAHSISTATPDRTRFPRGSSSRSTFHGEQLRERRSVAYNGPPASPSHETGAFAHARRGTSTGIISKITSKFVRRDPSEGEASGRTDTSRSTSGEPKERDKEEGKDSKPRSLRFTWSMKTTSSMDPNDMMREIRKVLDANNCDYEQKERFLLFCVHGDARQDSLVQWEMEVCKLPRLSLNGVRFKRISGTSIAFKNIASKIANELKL
Procedure: as §2

MET = target: T8, MET (Homo sapiens, UniProt P08581); experiment: In vitro kinase screening; format: biochemical; details: 10 μM concentration
T8 construct: Caliper Life Sciences
T8 sequence (P08581 25-1390): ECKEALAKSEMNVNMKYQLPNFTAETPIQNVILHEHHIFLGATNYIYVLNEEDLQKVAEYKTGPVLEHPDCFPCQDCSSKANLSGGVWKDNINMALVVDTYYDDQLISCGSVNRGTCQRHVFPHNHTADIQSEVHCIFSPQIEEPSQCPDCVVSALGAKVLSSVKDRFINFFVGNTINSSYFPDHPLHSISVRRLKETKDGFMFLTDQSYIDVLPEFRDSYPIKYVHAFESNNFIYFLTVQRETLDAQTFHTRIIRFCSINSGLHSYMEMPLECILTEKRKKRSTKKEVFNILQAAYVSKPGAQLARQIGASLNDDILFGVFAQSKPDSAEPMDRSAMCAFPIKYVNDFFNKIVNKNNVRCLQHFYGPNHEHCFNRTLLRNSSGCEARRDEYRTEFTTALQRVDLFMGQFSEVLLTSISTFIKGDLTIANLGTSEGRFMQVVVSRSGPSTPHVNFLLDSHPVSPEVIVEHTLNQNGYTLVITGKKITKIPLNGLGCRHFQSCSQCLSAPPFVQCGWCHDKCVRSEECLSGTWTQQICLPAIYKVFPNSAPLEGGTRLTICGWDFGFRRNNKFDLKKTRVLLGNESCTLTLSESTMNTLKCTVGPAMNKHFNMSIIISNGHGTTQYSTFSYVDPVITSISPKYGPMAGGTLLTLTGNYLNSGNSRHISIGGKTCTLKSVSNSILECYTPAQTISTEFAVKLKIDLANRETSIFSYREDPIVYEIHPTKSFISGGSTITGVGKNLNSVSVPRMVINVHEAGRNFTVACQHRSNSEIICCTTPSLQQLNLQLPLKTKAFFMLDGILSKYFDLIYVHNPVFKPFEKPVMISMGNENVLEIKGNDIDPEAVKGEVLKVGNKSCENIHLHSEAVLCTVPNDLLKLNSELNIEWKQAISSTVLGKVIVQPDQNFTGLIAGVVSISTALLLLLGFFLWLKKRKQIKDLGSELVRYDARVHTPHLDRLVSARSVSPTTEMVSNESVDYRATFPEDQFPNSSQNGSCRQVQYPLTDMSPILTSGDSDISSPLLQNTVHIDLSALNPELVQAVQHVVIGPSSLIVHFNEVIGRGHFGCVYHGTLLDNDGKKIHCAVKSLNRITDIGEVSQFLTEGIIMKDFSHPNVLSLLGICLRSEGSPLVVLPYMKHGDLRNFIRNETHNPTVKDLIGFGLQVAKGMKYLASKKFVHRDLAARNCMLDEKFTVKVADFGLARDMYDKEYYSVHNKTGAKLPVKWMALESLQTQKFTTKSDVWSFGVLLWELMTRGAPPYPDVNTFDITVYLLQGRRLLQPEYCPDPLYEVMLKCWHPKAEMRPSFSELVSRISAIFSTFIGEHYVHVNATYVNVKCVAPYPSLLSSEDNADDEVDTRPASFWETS
Procedure: as §2

CHK1 = target: T9, CHK1 (Homo sapiens, UniProt O14757); experiment: In vitro kinase screening; format: biochemical; details: CHK1, 10 μM concentration
T9 construct: Caliper Life Sciences (screening service)
Procedure: as §2

PKGa = target: T10, PKGa (Homo sapiens, UniProt Q13976); experiment: In vitro kinase screening; format: biochemical; details: 10 μM concentration
T10 construct: Caliper Life Sciences
Procedure: as §2

GSK3b = target: T11, GSK3b (Homo sapiens, UniProt P49841); experiment: In vitro kinase screening; format: biochemical; details: 10 μM concentration
T11 construct: Caliper Life Sciences (screening service)
Procedure: as §2

SGK1 = target: T12, SGK1 (Homo sapiens, UniProt O00141); experiment: In vitro kinase screening; format: biochemical; details: SGK1, 10 μM concentration
T12 construct: Caliper Life Sciences
Procedure: as §2

MSK1 = target: T13, MSK1 (Homo sapiens, UniProt O75582); experiment: In vitro kinase screening; format: biochemical; details: MSK1, 10 μM concentration
T13 construct: Caliper Life Sciences
Procedure: as §2

Ck1d = target: T14, Ck1d (Homo sapiens, UniProt P48730); experiment: In vitro kinase screening; format: biochemical; details: 10 μM concentration
T14 construct: Caliper Life Sciences (screening service)
Procedure: as §2

MST2 = target: T15, MST2 (Homo sapiens, UniProt Q13188); experiment: In vitro kinase screening; format: biochemical; details: MST2, 10 μM concentration
T15 construct: Caliper Life Sciences
Procedure: as §2

FLT3 = target: T16, FLT3 (Homo sapiens, UniProt P36888); experiment: In vitro kinase screening; format: biochemical; details: FLT3, 10 μM concentration
T16 construct: Caliper Life Sciences (screening service)
Procedure: as §2

LCK = target: T17, LCK (Homo sapiens, UniProt P06239); experiment: In vitro kinase screening; format: biochemical; details: 10 μM concentration
T17 construct: Caliper Life Sciences
Procedure: as §2

DYRK1a = target: T18, DYRK1a (Homo sapiens, UniProt Q13627); experiment: In vitro kinase screening; format: biochemical; details: 10 μM concentration
T18 construct: Caliper Life Sciences (screening service)
Procedure: as §2

BTK = target: T19, BTK (Homo sapiens, UniProt Q06187); experiment: In vitro kinase screening; format: biochemical; details: 10 μM concentration
T19 construct: Caliper Life Sciences (screening service)
Procedure: as §2

c-Raf = target: T20, c-Raf (Homo sapiens, UniProt P04049); experiment: In vitro kinase screening; format: biochemical; details: 10 μM concentration
T20 construct: Caliper Life Sciences (screening service)
T20 sequence (P04049 whole entry): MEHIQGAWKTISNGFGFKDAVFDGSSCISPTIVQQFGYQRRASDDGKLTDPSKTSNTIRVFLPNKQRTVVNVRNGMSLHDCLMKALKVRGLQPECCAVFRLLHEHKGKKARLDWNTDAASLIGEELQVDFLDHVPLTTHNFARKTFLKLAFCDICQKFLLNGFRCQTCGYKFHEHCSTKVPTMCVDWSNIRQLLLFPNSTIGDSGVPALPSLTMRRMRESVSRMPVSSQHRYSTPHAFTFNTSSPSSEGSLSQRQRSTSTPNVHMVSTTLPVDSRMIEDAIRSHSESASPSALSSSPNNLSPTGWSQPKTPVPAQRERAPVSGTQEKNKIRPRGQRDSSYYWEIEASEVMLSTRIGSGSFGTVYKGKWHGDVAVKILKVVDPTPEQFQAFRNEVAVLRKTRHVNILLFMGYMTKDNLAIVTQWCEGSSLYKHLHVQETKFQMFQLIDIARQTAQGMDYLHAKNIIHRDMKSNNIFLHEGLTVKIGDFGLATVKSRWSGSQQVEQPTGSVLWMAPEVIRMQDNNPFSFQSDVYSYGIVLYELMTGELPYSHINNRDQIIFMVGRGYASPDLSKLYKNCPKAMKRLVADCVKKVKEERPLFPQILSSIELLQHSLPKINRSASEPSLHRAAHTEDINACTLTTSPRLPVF
Procedure: as §2

KDR = target: T21, KDR (Homo sapiens, UniProt P35968); experiment: In vitro kinase screening; format: biochemical; details: 10 μM concentration
T21 construct: Caliper Life Sciences
T21 sequence (P35968 20-1356, species assumed): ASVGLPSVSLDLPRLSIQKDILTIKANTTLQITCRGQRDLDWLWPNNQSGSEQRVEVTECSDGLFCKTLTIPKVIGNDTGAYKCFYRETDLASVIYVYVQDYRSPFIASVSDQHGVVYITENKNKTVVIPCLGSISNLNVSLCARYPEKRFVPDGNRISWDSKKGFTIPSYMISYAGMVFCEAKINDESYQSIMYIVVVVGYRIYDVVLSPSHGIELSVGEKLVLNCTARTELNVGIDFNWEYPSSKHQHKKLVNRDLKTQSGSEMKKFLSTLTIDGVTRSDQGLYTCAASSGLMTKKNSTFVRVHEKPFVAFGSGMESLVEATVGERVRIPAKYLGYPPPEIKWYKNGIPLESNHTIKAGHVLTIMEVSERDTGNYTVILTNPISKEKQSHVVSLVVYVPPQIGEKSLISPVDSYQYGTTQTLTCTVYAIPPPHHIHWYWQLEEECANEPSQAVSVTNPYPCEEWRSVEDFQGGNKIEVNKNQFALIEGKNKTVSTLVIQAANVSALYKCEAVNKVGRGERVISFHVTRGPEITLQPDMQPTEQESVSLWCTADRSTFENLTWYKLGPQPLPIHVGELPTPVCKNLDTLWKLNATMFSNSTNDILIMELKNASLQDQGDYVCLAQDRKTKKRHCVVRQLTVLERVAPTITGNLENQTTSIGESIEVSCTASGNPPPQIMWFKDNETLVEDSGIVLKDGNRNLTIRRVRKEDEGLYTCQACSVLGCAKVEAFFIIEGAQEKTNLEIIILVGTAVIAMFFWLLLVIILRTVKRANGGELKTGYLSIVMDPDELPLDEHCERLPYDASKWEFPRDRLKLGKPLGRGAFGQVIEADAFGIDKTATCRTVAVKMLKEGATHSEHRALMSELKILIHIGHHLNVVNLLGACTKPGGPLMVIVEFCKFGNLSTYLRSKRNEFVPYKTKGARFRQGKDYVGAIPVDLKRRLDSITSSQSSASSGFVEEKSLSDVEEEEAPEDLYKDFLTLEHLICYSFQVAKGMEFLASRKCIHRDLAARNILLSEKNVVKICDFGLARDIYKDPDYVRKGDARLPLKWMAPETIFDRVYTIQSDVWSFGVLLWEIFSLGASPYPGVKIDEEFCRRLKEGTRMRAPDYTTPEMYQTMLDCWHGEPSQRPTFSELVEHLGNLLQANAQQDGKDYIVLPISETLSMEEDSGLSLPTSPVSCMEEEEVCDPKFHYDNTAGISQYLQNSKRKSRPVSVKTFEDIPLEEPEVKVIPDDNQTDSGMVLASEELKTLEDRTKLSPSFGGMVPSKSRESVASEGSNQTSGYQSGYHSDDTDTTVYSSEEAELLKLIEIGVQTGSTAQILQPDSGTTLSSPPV
Procedure: as §2

FYN = target: T22, FYN (Homo sapiens, UniProt P06241); experiment: In vitro kinase screening; format: biochemical; details: 10 μM concentration
T22 construct: Caliper Life Sciences (screening service)
Procedure: as §2

PRAK = target: T23, PRAK (Homo sapiens, UniProt Q8IW41); experiment: In vitro kinase screening; format: biochemical; details: 10 μM concentration
T23 construct: Caliper Life Sciences
Procedure: as §2

AMPK = experiment: In vitro kinase screening; format: biochemical; details: 10 μM concentration
Procedure: as §2

U937 cells = experiment: Cell cycle analysis (PI flow cytometry); format: cell-based; details: 24 h
Procedure: FIG. 3. Effects of Formula II and Formula III on U937 cell cycle. Cells were treated with compounds prepared as described in Examples 4 and 8 [i.e. 3-(2-aminoethyl)-5-(3-cyclohexylpropylidene)thiazolidine-2,4-dione and 3-(2-aminoethyl)-5-(3-phenyl-propylidene)-thiazolidine-2,4-dione, respectfully] for 24 hrs, then cells were stained with PI and analyzed by flow cytometry.
After treatment of cells with test compound of varying concentrations for 24 hrs, cells were pelleted at 4° C., resuspended, fixed at 4° C. with 67% ethanol overnight, and treated on ice with a PI solution containing 3.8 mM Na citrate, 0.5 mg/mL RNase A (Sigma Chemical Co.), and 0.01 mg/mL PI (Sigma) for 3 hrs. Cell cycle analysis was performed by flow cytometry using Verity Winlist software (Topsham, Me.).

For `NCCN1C(=O)S/C(=C\CCC2CCCCC2)C1=O` [Example 4, 3-(2-aminoethyl)-5-(3-cyclohexylpropylidene)thiazolidine-2,4-dione], the pIC50 (M12) was 5.35, the pIC50 (HT29) was 4.75 and the pIC50 (U937) was 5.66. It also gave a pIC50 (DU145) of 5.32, a pIC50 (PC-3) of 5.35 and an inhibition at 10 µM (INSR) of -2%. It also gave an inhibition at 10 µM (MEK1) of 69%, an inhibition at 10 µM (AKT2) of 8% and an inhibition at 10 µM (CHK2) of 8%. For the same compound, the inhibition at 10 µM (c-TAK1) was 6%, the inhibition at 10 µM (ROCK2) was -1% and the inhibition at 10 µM (MARK1) was 0%. For the same compound, the inhibition at 10 µM (MET) was -1%, the inhibition at 10 µM (CHK1) was 11% and the inhibition at 10 µM (PKGa) was -2%. It also gave an inhibition at 10 µM (GSK3b) of 0%, an inhibition at 10 µM (SGK1) of 14% and an inhibition at 10 µM (MSK1) of 6%. For the same compound, the inhibition at 10 µM (Ck1d) was -5%, the inhibition at 10 µM (MST2) was -3% and the inhibition at 10 µM (FLT3) was 38%. It also gave an inhibition at 10 µM (LCK) of 4%, an inhibition at 10 µM (DYRK1a) of -5% and an inhibition at 10 µM (BTK) of 12%. The inhibition at 10 µM (c-Raf) was -1%, the inhibition at 10 µM (KDR) was -28% and the inhibition at 10 µM (FYN) was 0%. The inhibition at 10 µM (PRAK) was 4%, the “% Inhibition” value (AMPK) was 76% and the “effect on cell cycle” value (U937 cells) was “arrested U937 cells at G2/M phase”.
